Experimental findings from patent publication US12589099B2 (priority 2021, dated 2026) are described below.

SMILES strings stand for the structures.

The subject of assay [1] is moderate traumatic brain injury (TBI) induced by controlled cortical impact (CCI). Nature of the assay: Modified neurological severity score (mNSS) after TBI. It is filed as in vivo, male Wistar rats. From the text:
(§1) Young adult (2-3 months) male Wistar rats were subjected to a moderate traumatic brain injury (TBI) induced by controlled cortical impact (CCI). Animal models of TBI including the CCI model and functional tests have been described in detail in peer reviewed publications (Xiong et al., 2013, Nat Rev Neurosci.; Zhang et al., 2016, J Neurosurg.; Zhang et al., 2016, Neurochem Int.; Zhang et al., 2021, J Neurotrauma). Injury consisted of a single impact at 4.0 m/sec, 2.5 mm deformation to the left parietal cortex. In addition, a group of animals was left healthy/not injured to serve as a healthy control.
(§2) The animals were divided into 3 groups: • 1) TBI+Vehicle (purified water, n=10) • 2) TBI+ALPHA-1062 (4.5 mg/kg) (n=10) • 3) Healthy/not injured and not treated (Sham surgery) (n=10)
(§3) The substance used in this study was ALPHA-1062 at 4.5 mg/kg. As control treatment (vehicle) purified water was administered intranasally (IN). The ALPHA-1062 and the control treatment were initiated 2 hours after injury and continued twice daily (with a 6-hour interval) for 35 consecutive days.
In addition, neurological functional tests were performed by conducting footfault tests and observations to determine the modified neurological severity score (mNSS) at 1, 7, 14, 21, 28, 35 days after TBI (see Table 1). The mNSS is a composite score assessing motor, sensory, balance, and reflex functions. […]

Assay [2] shares this test system. Nature of the assay: Morris water maze (MWM) test after TBI. It counts as in vivo, male Wistar rats. How it is done: FIG. 2: The figure illustrates functional tests that are carried out on healthy (sham surgery) no treatment, vehicle treated and ALPHA-1062 treated rats to assess sensorimotor and cognitive function after TBI. Sensimotor function tests. a) The figure depicts tests to assess the modified neurological severity score (mNSS). […] The animal is required to balance over a grid and the frequency of steps missing the grid are counted. This test assesses the functionality of the injured parietal cortex of the rat's brain. c) The adhesive removal test consists of applying adhesive tape on each forepaw of the animal and measuring the time-to-contact and the time-to-remove them. This behavior requires correct paw and mouth sensitivity (time-to-contact) and correct dexterity (time-to-remove). Cognitive function tests: a) This picture illustrates the Morris water maze that comprises that a rat is placed in a large circular pool (picture on the left) and is required to find an invisible platform that allows it to escape the water by using various visuo-spatial cues. This test is used to study spatial learning and memory and assesses hippocampal and select cortical brain region function. Usually, the path of the rat through the pool is tracked (picture on the right) and the time spend in the proximity of the platform as well as the time needed until the platform is found by the rat are measured. b) For the new/novel object recognition (NOR) test, after a habituation time in the test space (picture on far left) rats are given the opportunity to explore two identical objects (A) for a predetermined period of time (picture in the middle). After a delay, the animals are then presented with two objects to explore, one of which is the same as in the first exploration trial (A), the other a new object (B) (picture on the right). Depending on the length of the delay between the two trials or depending on the extend of cortical damage, the rats will either explore the novel object for a greater time period, indicating memory for the familiar object, or will explore the novel and familiar objects for the same amount of time, indicating a lack of recall or loss of memory for the familiar object presented during the initial trial.
as §1, §2, §3
During the in vivo part of the study cognitive functional tests were performed by conducting Morris water maze (MWM) tests and novel object recognition tests on all animals at 5 weeks after TBI, with the MWM test being performed on days 31-35 following TBI (see Table 1).
The Morris water maze (MWM) is a test used in behavioral neuroscience to study spatial learning and memory, for example in rats. It enables spatial learning and memory to be studied, and can also be used to assess damage to hippocampus and select cortical regions of the brain. […]

Setting [3] is: 4.5 mg/kg IN twice daily, days 33 to 35.

Turning to `COc1ccc2c3c1O[C@H]1C[C@@H](OC(=O)c4ccccc4)C=C[C@@]31CCN(C)C2` [ALPHA-1062, (4aS,6R,8aS)-5,6,9,10,11,12-hexahydro-3-methoxy-11-methyl-4aH-[1]benzofuro[3a,3,2-ef][2]benzazepin-6-ol benzoate], the mNSS performance entry in assay [1] (4.5 mg/kg IN twice daily, from day 14 (D14) onwards, vs vehicle) was “statistically significantly better”. In addition, the “Modified Neurological Severity Score (mNSS), performance over VEHICLE” value in assay [1] (rats after TBI, compared to vehicle treatment) was “superior”. Moreover, in assay [2] (setting [3]), the “MWM % time in the correct quadrant, compared to uninjured (sham surgery) animals” value was “equivalent amount of time”; the “MWM % time in the correct quadrant, compared to vehicle” value is listed as “statistically significantly better”; the “MWM latency to find the hidden escape platform, compared to uninjured (sham) animals” value is given as “as well as the uninjured (sham) animals”; the “MWM latency to find the hidden escape platform, compared to vehicle” value was “statistically significantly better”. Besides, in assay [2] (rats after TBI, ALPHA-1062 treatment compared to healthy sham animals), the “Morris Water Maze (MWM), performance over SHAM” value is “equivalent to”. Besides, in assay [2] (rats after TBI, ALPHA-1062 treatment compared to vehicle treatment), the “Morris Water Maze (MWM), performance over VEHICLE” value is given as “superior”.
